Among the data in BindingDB's records for patent US9670231 (BeiGene, Ltd, 2017) are IC50 values, retold here.

Assay [1] has as its target Serine/threonine-protein kinase B-raf [V600E] (Homo sapiens, UniProt P15056, V600E). Put plainly: Not found.
Assay [2] concerns the target RAF proto-oncogene serine/threonine-protein kinase [Y340D,Y341D] (Homo sapiens, UniProt P04049, Y340D/Y341D). Put plainly: Not found.
From the text: Not found

Serine/threonine-protein kinase B-raf [V600E], sequence (P15056 2-766 V600E limits assumed): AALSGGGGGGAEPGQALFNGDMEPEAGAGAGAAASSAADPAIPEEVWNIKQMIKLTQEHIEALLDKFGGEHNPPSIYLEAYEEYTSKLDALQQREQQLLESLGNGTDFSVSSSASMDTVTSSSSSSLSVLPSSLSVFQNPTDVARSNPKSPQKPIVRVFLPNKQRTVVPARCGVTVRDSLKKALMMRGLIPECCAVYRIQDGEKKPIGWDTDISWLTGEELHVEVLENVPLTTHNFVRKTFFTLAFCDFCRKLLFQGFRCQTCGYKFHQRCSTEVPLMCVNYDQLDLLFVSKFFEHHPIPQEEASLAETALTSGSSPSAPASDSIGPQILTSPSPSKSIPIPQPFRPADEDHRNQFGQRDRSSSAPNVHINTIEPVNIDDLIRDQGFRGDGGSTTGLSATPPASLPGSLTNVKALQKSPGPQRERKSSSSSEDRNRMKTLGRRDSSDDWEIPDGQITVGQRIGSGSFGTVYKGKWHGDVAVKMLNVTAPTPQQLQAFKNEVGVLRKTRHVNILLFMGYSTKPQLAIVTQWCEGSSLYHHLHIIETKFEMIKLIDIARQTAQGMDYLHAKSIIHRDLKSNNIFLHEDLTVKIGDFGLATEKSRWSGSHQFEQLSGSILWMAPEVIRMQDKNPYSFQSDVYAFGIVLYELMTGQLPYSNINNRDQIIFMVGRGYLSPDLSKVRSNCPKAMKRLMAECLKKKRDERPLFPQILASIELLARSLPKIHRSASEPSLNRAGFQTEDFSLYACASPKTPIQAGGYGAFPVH
RAF proto-oncogene serine/threonine-protein kinase [Y340D,Y341D], sequence (P04049 whole entry Y340D/Y341D): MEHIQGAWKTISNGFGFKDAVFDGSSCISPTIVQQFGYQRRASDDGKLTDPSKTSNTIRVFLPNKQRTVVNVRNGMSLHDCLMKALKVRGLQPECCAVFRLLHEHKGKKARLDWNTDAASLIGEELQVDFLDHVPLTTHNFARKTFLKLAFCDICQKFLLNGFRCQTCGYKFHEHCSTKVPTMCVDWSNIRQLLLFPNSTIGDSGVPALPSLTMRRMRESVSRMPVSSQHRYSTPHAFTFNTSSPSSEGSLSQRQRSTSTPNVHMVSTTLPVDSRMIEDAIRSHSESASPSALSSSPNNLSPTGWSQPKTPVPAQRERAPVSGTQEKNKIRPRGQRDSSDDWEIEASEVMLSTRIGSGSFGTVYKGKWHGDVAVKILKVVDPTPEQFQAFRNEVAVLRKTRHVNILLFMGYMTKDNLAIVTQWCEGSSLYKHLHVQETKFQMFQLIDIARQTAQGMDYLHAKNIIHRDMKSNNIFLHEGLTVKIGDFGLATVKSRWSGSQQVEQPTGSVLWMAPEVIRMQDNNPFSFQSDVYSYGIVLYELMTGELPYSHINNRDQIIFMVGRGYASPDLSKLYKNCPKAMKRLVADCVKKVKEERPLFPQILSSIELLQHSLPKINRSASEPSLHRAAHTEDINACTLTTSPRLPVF

One may read the IC50 as the concentration that gives 50% inhibition. Low readings indicate greater potency in that assay, high ones weaker potency in that assay. Regarding `CN1CCN(CCOc2ccc(C(=O)N[C@@H]3[C@H]4Oc5ccc(Oc6ccnc7c6CCC(=O)N7)cc5[C@@H]34)cc2C(F)(F)F)CC1` [US9670231, 1.52], the IC50 stood at 14 nM in assay [1] and 2.5 nM in assay [2]. `O=C1CCc2c(Oc3ccc4c(c3)[C@H]3[C@H](NC(=O)c5ccc(CN6CCC[C@H](O)C6)c(C(F)(F)F)c5)[C@H]3O4)ccnc2N1` [US9670231, 1.15]: the IC50 in assay [2] stood at 6.2 nM. Consider `CN(C)[C@@H]1CCN(Cc2ccc(C(=O)N[C@@H]3[C@H]4Oc5ccc(Oc6ccnc7c6CCC(=O)N7)cc5[C@@H]34)cc2C(F)(F)F)C1` [US9670231, 1.10], for which, in assay [1], half-maximal inhibition (IC50) was put at 14 nM.

The compound `O=C1CCc2c(Oc3ccc4c(c3)[C@H]3[C@H](NC(=O)c5ccc(CN6CCN(CCO)CC6)c(C(F)(F)F)c5)[C@H]3O4)ccnc2N1` [US9670231, 1.17] came in with an IC50 in assay [1] of 10.4 nM. Take `CN(C)[C@H]1CCN(Cc2ccc(C(=O)N[C@@H]3[C@H]4Oc5ccc(Oc6ccnc7c6CCC(=O)N7)cc5[C@@H]34)cc2C(F)(F)F)C1` [US9670231, 1.9]: half-maximal inhibition in assay [1] (IC50) required 17 nM. Still for that read-out and setting: the figure for `CN1CCN(Cc2ccc(C(=O)N[C@@H]3[C@H]4Oc5ccc(Oc6ccnc7c6COC(=O)N7)cc5[C@@H]34)cc2C(F)(F)F)CC1` [US9670231, 2.2] is 11 nM.

With `CN(C)C1CCN(Cc2ccc(C(=O)N[C@@H]3[C@H]4Oc5ccc(Oc6ccnc7c6CCC(=O)N7)cc5[C@@H]34)cc2C(F)(F)F)CC1` [US9670231, 1.20], the IC50 in assay [1] was 11 nM; in assay [2] it was 2.1 nM.
